Assay results reported in US20100267822A1, “AURONES AS ESTROGEN RECEPTOR MODULATORS AND THEIR USE IN SEX HORMONE DEPENDENT DISEASES” (priority 2009, published 2010).

Tests used:
[1] = biological target: T1, Recombinant human ERbeta protein (Homo sapiens, UniProt Q92731); test: [3H] estradiol binding to recombinant human ERbeta (radioligand displacement, MDS cat No. 226050); details: test compound 10 μM; 0.5 nM [3H] estradiol; 2 hours at 25° C.; in comparison to the vehicle control (1% DMSO)
T1 construct: purchased MDS Pharma Services 226050; host or cells: insect Sf9 cells
Method: (§1) Recombinant human ERbeta protein isolated from insect Sf9 cells (MDS Pharma Services: cat No. 226050) was incubated with the test substance (dissolved in 1% DMSO) and 0.5 nM [^3H] estradiol for 2 hours at 25° C. in an incubation buffer (10 mM TrisHCl pH 7.4, 0.1% BSA, 10% Glycerol, 1 mM DTT). At the end of the incubation period, receptor-bound [^3H] estradiol was quantified. Stimulating or inhibiting effects equal or larger than 50% in comparison to vehicle control (1% DMSO) were considered to be significant. The final concentration of the test compound was 10 μM.
(§2) The assays described in Examples 4 and 5 were conducted by MDS (catalogue number 226010 for ERalpha and 226050 for ERbeta, respectively) following procedures established in literature (Obourn et al., Biochemistry 1993, 32: 6229-6236).

[2] = biological target: T2, Recombinant human ERalpha protein (Homo sapiens, UniProt P03372); test: [3H] estradiol binding to recombinant human ERalpha (radioligand displacement, MDS cat No. 226010); details: test compound 10 μM; 0.5 nM [3H] estradiol; 2 hours at 25° C.; in comparison to the vehicle control (1% DMSO)
T2 construct: purchased MDS Pharma Services 226010; host or cells: insect Sf9 cells (printed as '519')
T2 sequence (P03372 1-595): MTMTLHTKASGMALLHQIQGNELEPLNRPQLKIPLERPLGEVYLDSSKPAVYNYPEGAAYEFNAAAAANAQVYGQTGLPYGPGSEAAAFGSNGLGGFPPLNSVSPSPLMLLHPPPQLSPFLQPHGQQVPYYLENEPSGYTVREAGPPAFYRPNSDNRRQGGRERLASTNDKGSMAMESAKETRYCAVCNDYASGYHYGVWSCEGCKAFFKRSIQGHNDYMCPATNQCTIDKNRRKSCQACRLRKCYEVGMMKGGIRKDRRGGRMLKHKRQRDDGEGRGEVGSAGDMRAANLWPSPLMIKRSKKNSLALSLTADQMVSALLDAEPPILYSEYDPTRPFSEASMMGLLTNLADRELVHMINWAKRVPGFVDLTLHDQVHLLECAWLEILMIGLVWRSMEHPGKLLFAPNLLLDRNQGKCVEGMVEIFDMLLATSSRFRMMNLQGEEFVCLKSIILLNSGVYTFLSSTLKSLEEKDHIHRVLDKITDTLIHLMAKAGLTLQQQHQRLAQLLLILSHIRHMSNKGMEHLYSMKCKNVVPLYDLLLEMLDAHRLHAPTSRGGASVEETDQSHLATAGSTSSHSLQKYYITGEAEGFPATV
Method: as §1, with “ERalpha” for “ERbeta”, “[…]” for “Sf9”, “226010)” for “226050)”
as §2

T1 sequence (Q92731 whole entry): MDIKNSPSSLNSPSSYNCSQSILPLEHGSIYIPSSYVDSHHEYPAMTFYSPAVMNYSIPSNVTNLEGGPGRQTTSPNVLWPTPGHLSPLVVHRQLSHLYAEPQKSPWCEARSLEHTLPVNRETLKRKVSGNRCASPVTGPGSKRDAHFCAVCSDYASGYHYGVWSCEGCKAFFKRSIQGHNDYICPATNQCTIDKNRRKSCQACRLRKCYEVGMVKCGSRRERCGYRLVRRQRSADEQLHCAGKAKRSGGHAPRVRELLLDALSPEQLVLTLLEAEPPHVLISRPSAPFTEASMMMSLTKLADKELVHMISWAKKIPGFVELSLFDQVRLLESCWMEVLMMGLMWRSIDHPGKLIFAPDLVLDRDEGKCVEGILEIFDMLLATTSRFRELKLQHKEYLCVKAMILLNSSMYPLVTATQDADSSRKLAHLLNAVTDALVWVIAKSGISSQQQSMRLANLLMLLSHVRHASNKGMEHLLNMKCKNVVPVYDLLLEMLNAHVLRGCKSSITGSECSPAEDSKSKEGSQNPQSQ

Row | inhibition at 10 µM [1] [%] | inhibition at 10 µM [2] [%] | Structure (SMILES)
1 | 13 | 2 | O=C1/C(=C/c2ccc(O)cc2O)Oc2cc(O)cc(O)c21 [SM29 (3), 2′,4,4′,6-Tetrahydroxyaurone]
2 | 91 | 18 | O=C1/C(=C/c2ccc(O)cc2)Oc2cc(O)cc(O)c21 [SM30 (3), 4,4′,6-Trihydroxyaurone]
